# Source: paper PMC4191963, “DNA Binding Properties of the Actin-Related Protein Arp8 and Its Role in DNA Repair” (PLoS ONE, 2014)
# Experiments:
# human Arp8 [1] = target: T1, human Arp8 (Homo sapiens, UniProt Q9H981); assay: agarose gel shift, loss of dsDNA binding; details: 1 mM MgCl2, pH 7.5, 37 °C, phiX174 dsDNA
# T1 construct: gene ACTR8; full length, N-terminal His6 tag removed with PreScission protease, expressed in E. coli
# human Arp8 [2] = target: T2, human Arp8 (Homo sapiens, UniProt Q9H981, E266A); assay: agarose gel shift, loss of dsDNA binding; details: 1 mM ATP, 1 mM MgCl2, pH 7.5, 37 °C, phiX174 circular dsDNA; ATP-binding pocket
# T2 construct: gene ACTR8; full length, N-terminal His6 tag removed with PreScission protease, expressed in E. coli
# T2 sequence (Q9H981 whole entry E266A): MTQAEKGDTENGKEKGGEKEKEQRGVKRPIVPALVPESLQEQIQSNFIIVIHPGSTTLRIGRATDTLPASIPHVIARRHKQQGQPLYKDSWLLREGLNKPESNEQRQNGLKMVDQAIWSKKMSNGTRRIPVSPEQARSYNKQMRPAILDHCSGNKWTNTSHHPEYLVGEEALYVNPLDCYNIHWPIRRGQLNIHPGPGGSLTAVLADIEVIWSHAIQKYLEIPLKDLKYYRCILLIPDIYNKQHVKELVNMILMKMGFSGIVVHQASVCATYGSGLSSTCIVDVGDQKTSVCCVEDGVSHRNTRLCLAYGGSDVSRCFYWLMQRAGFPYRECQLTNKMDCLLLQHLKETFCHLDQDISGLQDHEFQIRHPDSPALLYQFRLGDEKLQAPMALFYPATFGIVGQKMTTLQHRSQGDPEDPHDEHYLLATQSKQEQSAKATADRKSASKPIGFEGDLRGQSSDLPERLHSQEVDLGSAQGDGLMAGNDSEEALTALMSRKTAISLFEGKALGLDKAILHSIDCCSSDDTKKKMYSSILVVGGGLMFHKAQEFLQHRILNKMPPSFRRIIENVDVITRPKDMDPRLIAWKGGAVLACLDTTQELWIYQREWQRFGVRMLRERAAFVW
# Arp8 = Arp8 (Homo sapiens, UniProt Q9H981 1-624); assay: competition EMSA (PAGE); 3 µM each of ssDNA, dsDNA, 3'-overhang; 250 mM NaCl; highest apparent affinity; 20 mM HEPES-NaOH pH 7.5, 160 mM NaCl (250 mM in oligonucleotide competition), 1 mM MgCl2, 1 mM DTT, 0.1 mg/ml BSA, 8% glycerol (not listed for competition), +/- 1 mM ATP or ADP, 37 C 15 min; details: protein: recombinant; tags: His6 (N-terminal) removed by PreScission; single-stranded
# Arp8, sequence (Q9H981 whole entry): as the sequence (Q9H981 whole entry E266A) above, with A266E counted along it
# T1 sequence (Q9H981 whole entry): as the sequence (Q9H981 whole entry E266A) above, with A266E counted along it
molecule,measurement,setting,value
Nc1ncnc2c1ncn2[C@@H]1O[C@H](COP(=O)(O)OP(=O)(O)OP(=O)(O)O)[C@@H](O)[C@H]1O [ATP],"agarose gel shift, loss of dsDNA binding","human Arp8 [1]; 1 mM ATP, ATP-binding pocket",Addition of ATP to the binding assay mixture significantly decreased the binding of Arp8
same,"agarose gel shift, loss of dsDNA binding",human Arp8 [2],ATP only partially inhibited the DNA binding activity of the Arp8 E266A mutant
Nc1ncnc2c1ncn2[C@@H]1O[C@H](COP(=O)(O)OP(=O)(O)O)[C@@H](O)[C@H]1O [ADP],"agarose gel shift, loss of dsDNA binding",human Arp8 [1]; 1 mM ADP,addition of ADP only slightly decreased the binding of Arp8 to dsDNAs
CCTCGATCCTACCAACCAGATGACGCGCTGCTACGTGCTACCGGAAGTCG (ssDNA) [a3 ssDNA],binding result,Arp8,binds
